In PubChem BioAssay (NCI):
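A five-concentration, 48-hour dose response in 96-well plates underlies each endpoint, interpolated linearly between surrounding concentrations. GI50 is the concentration that inhibits growth by half. TGI denotes the concentration required for complete inhibition of growth.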

What was measured:
Assay in all cases: inhibition of tumour cell growth, NCI panel, 48 h
[1] = system: SNB-75 CNS
[2] = system: IGROV1 ovarian
[3] = system: SK-OV-3 ovarian
[4] = system: A498 renal
[5] = system: DU-145 prostate
[6] = system: MDA-MB-435
[7] = system: SNB-19 CNS
[8] = system: NCI-H23 lung
[9] = system: EKVX NSCLC
[10] = system: PC-3 prostate

SMILES	GI50 [1]	TGI [1]	GI50 [2]	TGI [2]	GI50 [3]	TGI [3]	GI50 [4]	TGI [4]	GI50 [5]	TGI [5]	GI50 [6]	TGI [6]	GI50 [7]	TGI [7]	GI50 [8]	TGI [8]	GI50 [9]	TGI [9]	GI50 [10]	TGI [10]
Cn1cc(-c2nc(-c3cn(C)c4ncccc34)cs2)c2ccccc21	1440 nM	4.83 µM	1390 nM	38.7 µM	1980 nM	5.31 µM	1500 nM	13.5 µM	2250 nM	10.7 µM	292 nM	1.15 µM	3680 nM	25.2 µM	3140 nM	23.9 µM	1770 nM	> 100 µM	1920 nM	9.3 µM
CCC(=C(c1ccc(OCCN2CCCC2)cc1)c1ccc(OCCN2CCCC2)cc1)c1ccc(Cl)cc1	921 nM	2.61 µM	582 nM	1.1 µM	583 nM	1.14 µM	1280 nM	2.82 µM	617 nM	1.14 µM	552 nM	1.03 µM	624 nM	1.19 µM	667 nM	1.38 µM	666 nM	1.4 µM	569 nM	1.2 µM
O=C(O)c1[nH]c2c([N+](=O)[O-])cc([N+](=O)[O-])cc2c1C(=O)O	–	> 100 µM	–	> 100 µM	–	> 100 µM	–	> 100 µM	–	> 100 µM	–	> 100 µM	–	> 100 µM	–	> 100 µM	–	> 100 µM	–	> 100 µM
COc1ccc(-c2nnc(Nc3nc(O)c(C4=c5cc(Br)ccc5=NC4=O)s3)o2)cc1	21600 nM	75.2 µM	2680 nM	23.8 µM	52000 nM	> 100 µM	12400 nM	46.4 µM	16900 nM	> 56.3 µM	23800 nM	57.7 µM	28100 nM	> 83.4 µM	23600 nM	> 69.3 µM	9890 nM	> 55.8 µM	18100 nM	> 76.7 µM
CCN(CC)CCCC(C)Nc1ccnc(/C=C/c2ccc(Cl)cc2)c1 (stereo not drawn)	–	4.5 µM	–	9.47 µM	–	10.7 µM	1620 nM	5.2 µM	–	17.6 µM	–	2.95 µM	–	16.6 µM	–	23.7 µM	–	15.6 µM	–	10.7 µM
CC(=O)c1ccc(Oc2c3ccccc3nc3occc23)cc1	21100 nM	> 100 µM	55700 nM	> 100 µM	59000 nM	> 100 µM	28100 nM	80.6 µM	15600 nM	> 100 µM	2020 nM	5.41 µM	7980 nM	> 100 µM	18900 nM	> 100 µM	73300 nM	> 100 µM	9770 nM	> 100 µM
O=c1[nH]c(=O)n(C2OC(CO)C(O)C2O)cc1F (stereo not drawn)	–	> 100 µM	–	3.12 µM	–	> 97.4 µM	87.6 nM	5.61 µM	–	> 100 µM	44.5 nM	> 77.9 µM	–	> 100 µM	–	> 43.9 µM	–	> 93.8 µM	–	> 100 µM
COc1ccc(C(Nc2ccccn2)c2cc(C(C)(C)C)cc(C(C)(C)C)c2O)cc1 (stereo not drawn)	–	49.4 µM	–	> 100 µM	–	> 100 µM	–	> 100 µM	–	> 100 µM	–	62.4 µM	–	> 100 µM	–	51.2 µM	–	> 100 µM	–	> 100 µM
CCCCC[C@H]1C/C=C2/C(=O)C(Cl)=C[C@@H]2C/C=C\CCCC(=O)O1	1760 nM	6.09 µM	444 nM	1.24 µM	907 nM	2.68 µM	546 nM	1.46 µM	638 nM	2.51 µM	337 nM	1.11 µM	590 nM	2.68 µM	493 nM	1.18 µM	560 nM	1.37 µM	473 nM	1.27 µM
O=C(O)c1cc(Cl)cc(Cc2cc(Cl)cc(C(=O)O)c2O)c1O	–	> 100 µM	–	> 100 µM	–	> 100 µM	–	> 100 µM	–	> 100 µM	–	> 100 µM	–	> 100 µM	–	> 100 µM	–	> 100 µM	–	> 100 µM
OCC1OC(n2cnc3c(NCc4ccccc4O)ncnc32)C(O)C1O (stereo not drawn)	1740 nM	18.3 µM	649 nM	10.5 µM	627 nM	26.1 µM	1210 nM	6.09 µM	224 nM	> 32 µM	184 nM	3.2 µM	1390 nM	> 100 µM	457 nM	4.46 µM	1030 nM	> 100 µM	523 nM	> 50.1 µM
